This note sets out measurements from patent US10953012B2, “Heterocyclic compounds for the inhibition of pask” (BioEnergenix LLC, priority 2011, dated 2021).

Test [1] concerns the target PASK (UniProt #Q96RG2; residues 879-1323) (Homo sapiens (Human), UniProt Q96RG2). Nature of the test: PASK ATP Radiochemical Assay. It is filed as biochemical. The settings on record: 33P-ATP radiochemical assay; read-out: IC50 Kinase Domain. Here is the method:
PASK ATP Radiochemical Assay Purified PASK (UniProt #Q96RG2; human recombinant N-terminal GST tagged construct, residues 879-1323) from insect cells (final concentration 5 nM) is added to freshly prepared Base Reaction Buffer containing 20 mM HEPES (pH 7.5), 10 mM MgCl2, 1 mM EGTA, 0.02% Brij35, 0.02 mg/ml BSA, 0.1 mM Na3VO4, 2 mM DTT, 1% DMSO and Myelin Basic Protein (20 μM final). Test compounds in DMSO are then added and the mixture, followed by delivery of ^33P-ATP (specific activity 0.01 μCi/μl final) to initiate the reaction. The kinase reaction is incubated for 120 min at room temperature. The entire reaction mixture is washed through onto a P81 Phosphocellulose paper and washed three times for 10 minutes in 75 mM phosphoric acid and once in methanol prior to drying and scintillation counting.

Test [2] concerns the target PASK (Homo sapiens (Human), UniProt Q96RG2). The experiment in a line: PAS Kinase FRET Assay. The test is classed as biochemical. Particulars: TR-FRET assay; read-out: IC50 Kinase Domain. In a few lines:
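Reaction buffer: 50 mM HEPES, 10 mM MgCl2, 1 mM EGTA, 2 mM DTT, 0.01% Tween-20. Test compounds (eleven-point series prepared at 4× final) preceded PASK and substrate/ATP. Reaction ran 2 h at 25 °C in the dark, then stopped. Phospho-ULight peptide detected by Eu-antibody TR-FRET, 665/615 nm ratio.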

The target of the next test is CK2a2 (Homo sapiens (Human), UniProt P19784). The experiment in a line: Biochemical Assay for CK2 Activity. Particulars: 33P-ATP radiochemical assay; read-out: IC50 CK2 a2. How it is done: Biochemical Assay for CK2 Activity
Purified CK2a2 (NP_001887; human full-length protein, GST tagged) from insect cells (final concentration 1.2 nM) is added to freshly prepared Base Reaction Buffer containing 20 mM Hepes (pH 7.5), 10 mM MgCl2, 1 mM EGTA, 0.02% Brij35, 0.02 mg/ml BSA, 0.1 mM Na3VO4, 2 mM DTT, 1% DMSO and CK2 sub [RRRDDDSDDD] (20 μM final). Test compounds in DMSO are then added and the mixture, followed by delivery of ^33P-ATP (specific activity 0.01 μCi/μl final) to initiate the reaction. The kinase reaction is incubated for 120 min at room temperature. The entire reaction mixture is washed through onto a P81 Phosphocellulose paper and washed three times for 10 minutes in 75 mM phosphoric acid and once in methanol prior to drying and scintillation counting.

The structures appear in SMILES notation. Some results are limits rather than exact numbers.

Chain of PASK (Homo sapiens (Human), UniProt Q96RG2) (Q96RG2 999-1251): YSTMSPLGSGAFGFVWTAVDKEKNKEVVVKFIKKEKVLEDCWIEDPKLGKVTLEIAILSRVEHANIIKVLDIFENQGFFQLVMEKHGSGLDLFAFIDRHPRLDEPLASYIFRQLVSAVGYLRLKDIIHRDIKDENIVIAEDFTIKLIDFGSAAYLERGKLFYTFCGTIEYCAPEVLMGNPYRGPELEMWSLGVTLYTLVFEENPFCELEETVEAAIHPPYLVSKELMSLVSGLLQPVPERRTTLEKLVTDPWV
Chain of PASK (UniProt #Q96RG2; residues 879-1323) (Homo sapiens (Human), UniProt Q96RG2) (Q96RG2 879-1323): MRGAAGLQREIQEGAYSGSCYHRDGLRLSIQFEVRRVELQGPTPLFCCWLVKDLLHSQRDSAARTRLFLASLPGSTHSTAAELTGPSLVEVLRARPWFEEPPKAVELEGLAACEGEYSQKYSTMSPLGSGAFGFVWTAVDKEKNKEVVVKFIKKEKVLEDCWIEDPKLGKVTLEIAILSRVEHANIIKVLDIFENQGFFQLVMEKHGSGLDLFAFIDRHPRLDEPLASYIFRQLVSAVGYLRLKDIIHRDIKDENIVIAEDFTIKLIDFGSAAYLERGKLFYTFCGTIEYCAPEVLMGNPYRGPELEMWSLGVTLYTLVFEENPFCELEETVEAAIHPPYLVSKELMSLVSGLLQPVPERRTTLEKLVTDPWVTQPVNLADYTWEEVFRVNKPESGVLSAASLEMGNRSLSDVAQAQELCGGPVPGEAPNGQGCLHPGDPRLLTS
Chain of CK2a2 (P19784 whole entry): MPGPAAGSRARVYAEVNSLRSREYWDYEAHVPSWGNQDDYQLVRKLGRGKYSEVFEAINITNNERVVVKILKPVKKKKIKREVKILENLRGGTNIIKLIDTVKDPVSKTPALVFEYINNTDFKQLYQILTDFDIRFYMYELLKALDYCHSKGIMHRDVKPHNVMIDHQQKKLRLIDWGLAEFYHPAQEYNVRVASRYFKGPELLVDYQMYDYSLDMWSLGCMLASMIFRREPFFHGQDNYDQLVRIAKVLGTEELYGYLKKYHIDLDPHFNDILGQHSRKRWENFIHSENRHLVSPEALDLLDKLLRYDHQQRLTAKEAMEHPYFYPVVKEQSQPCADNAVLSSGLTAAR

In general, IC50 refers to the point on the concentration scale where inhibition reaches its midpoint. Turning to `O=c1cc(-c2ccc3c(c2)OCCO3)[nH]c2c(-c3ccc(N4CCCC4)nc3)cnn12` [Example 119, 5-(2,3-Dihydrobenzo[b][1,4]dioxin-6-yl)-3-(6-(pyrrolidin-1-yl)pyridin-3-yl)pyrazolo[1,5-a]pyrimidin-7(4H)-one], the IC50 on PASK [1], on PASK [2] and on CK2a2 was no more than 10 µM each time.
On to `COc1ccc2c(c1)CCc1c-2[nH]c2c(-c3ccccn3)cnn2c1=O` [Example 121, 3-Methoxy-11-(pyridin-2-yl)-5,6-dihydrobenzo[h]pyrazolo[5,1-b]quinazolin-7(12H)-one], for which the IC50 on PASK [1], on PASK [2] and at CK2a2 was no more than 10 µM in each case.
In the case of `COc1ccc(-c2cc(=O)n3nc(O)c(-c4ccccn4)c3[nH]2)c(OC)c1` [Example 122, 5-(2,4-Dimethoxyphenyl)-2-hydroxy-3(pyridin-2-yl)pyrazolo[1,5-a]pyrimidin-7(4H)-one], the IC50 at PASK [1] was no more than 10 µM; on PASK [2], no more than 10 µM; on CK2a2 it was no less than 10 µM.
Turning to `O=c1cc(-c2ccc(Cl)cc2)[nH]c2c(-c3ccccn3)c(O)nn12` [Example 123, 5-(4-Chlorophenyl)-2-hydroxy-3-(pyridin-2-yl)pyrazolo[1,5-a]pyrimidin-7(4H)-one], the half-inhibitory concentration (IC50) at PASK [1] is no more than 10 µM; at PASK [2], no more than 10 µM; at CK2a2 it was no less than 10 µM.
`O=c1cc(-c2ccc(F)cc2)[nH]c2c(-c3ccccn3)cnn12` [Example 125, 5-(4-Fluorophenyl)-3-(pyridin-2-yl)pyrazolo[1,5-a]pyrimidin-7(4H)-one]: the IC50 on PASK [1], on PASK [2] and on CK2a2 was no more than 10 µM throughout.
Consider `O=c1cc(-c2ccc(Cl)c(Cl)c2)[nH]c2c(-c3ccccn3)cnn12` [Example 126, 5-(3,4-Dichlorophenyl)-3-(pyridin-2-yl)pyrazolo[1,5-a]pyrimidin-7(4H)-one], for which the half-maximal inhibitory concentration (IC50) at PASK [1], on PASK [2] and at CK2a2 was no more than 10 µM each time.
Turning to `O=c1cc(-c2ccc3occc3c2)[nH]c2c(-c3ccccc3)c(O)nn12` [Example 127, 5-(Benzofuran-5-yl)-2-hydroxy-3-phenylpyrazolo[1,5-a]pyrimidin-7(4H)-one], the IC50 on PASK [1], at PASK [2] and at CK2a2 was no more than 10 µM in each case.
For the compound `O=c1cc(-c2ccc(Cl)cc2)[nH]c2c(-c3cccnc3)c(O)nn12` [Example 128, 5-(4-Chlorophenyl)-2-hydroxy-3-(pyridin-3-yl)pyrazolo[1,5-a]pyrimidin-7(4H)-one], the half-maximal inhibitory concentration (IC50) is no more than 10 µM at PASK [1], no more than 10 µM at PASK [2] and no less than 10 µM on CK2a2.
With `O=c1cc(-c2ccc3c(c2)CCO3)[nH]c2c(-c3ccccn3)c(O)nn12` [Example 129, 5-(2,3-Dihydrobenzofuran-5-yl)-2-hydroxy-3-(pyridin-2-yl)pyrazolo[1,5-a]pyrimidin-7(4H)-one], the IC50 on PASK [1] was no more than 10 µM; on PASK [2] it was no more than 10 µM; at CK2a2 it was no less than 10 µM.
As to `O=c1cc(-c2ccc3c(c2)CCO3)[nH]c2c(-c3cccnc3)c(O)nn12` [Example 130, 5-(2,3-Dihydrobenzofuran-5-yl)-2-hydroxy-3-(pyridin-3-yl)pyrazolo[1,5-a]pyrimidin-7(4H)-one], the IC50 on PASK [1], at PASK [2] and at CK2a2 was no more than 10 µM each time.
Regarding `O=c1cc(-c2ccc3occc3c2)[nH]c2c(-c3ccccn3)c(O)nn12` [Example 131, 5-(Benzofuran-5-yl)-2-hydroxy-3-(pyridin-2-yl)pyrazolo[1,5-a]pyrimidin-7(4H)-one], the IC50 on PASK [1], on PASK [2] and on CK2a2 was no more than 10 µM each time.
For the compound `O=c1cc(-c2ccc3c(c2)OCO3)[nH]c2c(Cc3ccccc3)cnn12` [Example 133, 5-(Benzo[d][1,3]dioxol-5-yl)-3-benzylpyrazolo[1,5-a]pyrimidin-7(4H)-one], the IC50 on PASK [1], at PASK [2] and on CK2a2 was no more than 10 µM throughout.
As for `COc1ccccc1-c1cc(=O)n2ncc(-c3ccccn3)c2[nH]1` [Example 135, 5-(2-Methoxyphenyl)-3-(pyridin-2-yl)pyrazolo[1,5-a]pyrimidin-7(4H)-one], the IC50 on PASK [1], at PASK [2] and on CK2a2 was no more than 10 µM throughout.
As for `O=c1cc(-c2ccc(F)cc2)[nH]c2c(-c3ccccn3)c(O)nn12` [Example 137, 5-(4-Fluorophenyl)-2-hydroxy-3-(pyridin-2-yl)pyrazolo[1,5-a]pyrimidin-7(4H)-one], the IC50 at PASK [1] is no more than 10 µM; on PASK [2] it was no more than 10 µM; at CK2a2, no less than 10 µM.
As for `Nc1nn2c(=O)cc(-c3ccc(Cl)cc3)[nH]c2c1-c1ccccc1` [Example 141, 2-Amino-5-(4-chlorophenyl)-3-phenylpyrazolo[1,5-a]pyrimidin-7(4H)-one], the IC50 at PASK [1], at PASK [2] and at CK2a2 was no more than 10 µM each time.
Take `Nc1nn2c(=O)cc(-c3ccc4c(c3)OCCO4)[nH]c2c1-c1ccccc1` [Example 142, 2-Amino-5-(2,3-dihydrobenzo[b][1,4]dioxin-6-yl)-3-phenylpyrazolo[1,5-a]pyrimidin-7(4H)-one]: the IC50 at PASK [1], at PASK [2] and at CK2a2 was no more than 10 µM in each case.
As to `CN(Cc1ccccc1)C(=O)c1cnn2c(=O)cc(-c3ccc4c(c3)OCCO4)[nH]c12` [Example 143, N-Benzyl-5-(2,3-dihydrobenzo[b][1,4]dioxin-6-yl)-N-methyl-7-oxo-4,7-dihydropyrazolo[1,5-a]pyrimidine-3-carboxamide], the IC50 on PASK [1], at PASK [2] and on CK2a2 was no more than 10 µM each time.
For `O=C(NCc1ccccc1)c1cnn2c(=O)cc(-c3ccc(Cl)cc3)[nH]c12` [Example 144, N-Benzyl-5-(4-chlorophenyl)-7-oxo-4,7-dihydropyrazolo[1,5-a]pyrimidine-3-carboxamide], the IC50 on PASK [1], at PASK [2] and at CK2a2 was no more than 10 µM in each case.
For the compound `CCCNC(=O)c1cnn2c(=O)cc(-c3ccc4c(c3)OCCO4)[nH]c12` [Example 145, 5-(2,3-Dihydrobenzo[b][1,4]dioxin-6-yl)-7-oxo-N-propyl-4,7-dihydropyrazolo[1,5-a]pyrimidine-3-carboxamide], the IC50 at PASK [1], on PASK [2] and on CK2a2 was no more than 10 µM in each case.
Take `O=c1cc(-c2ccc3occc3c2)[nH]c2c(-c3cccnc3)c(O)nn12` [Example 147, 5-(Benzofuran-5-yl)-2-hydroxy-3-(pyridin-3-yl)pyrazolo[1,5-a]pyrimidin-7(4H)-one]: the IC50 on PASK [1], at PASK [2] and at CK2a2 was no more than 10 µM each time.
As to `Nc1nn2c(=O)cc(-c3ccc4c(c3)OCCO4)[nH]c2c1-c1ccccn1` [Example 148, 2-Amino-5-(2,3-dihydrobenzo[b][1,4]dioxin-6-yl)-3-(pyridin-2-yl)pyrazolo[1,5-a]pyrimidin-7(4H)-one], the IC50 at PASK [1], on PASK [2] and on CK2a2 was no more than 10 µM throughout.
For the compound `Nc1nn2c(=O)cc(-c3ccc4c(c3)OCO4)[nH]c2c1-c1ccccn1` [Example 150, 2-Amino-5-(benzo[d][1,3]dioxol-5-yl)-3-(pyridin-2-yl)pyrazolo[1,5-a]pyrimidin-7(4H)-one], the IC50 on PASK [1], on PASK [2] and at CK2a2 was no more than 10 µM in each case.
